In patent US20260274856A1, “COVALENT CEREBLON LIGANDS” (C4 THERAPEUTICS, INC., priority 2023, published 2026):
Like-named read-outs stand apart in the source and are kept apart here.

Columns and labels:
[1] = target: cellular cereblon (CRBN) (Homo sapiens, UniProt Q96SW2); experiment: NanoBRET Target Engagement Assay, competition with pomalidomide tracer in 293T.116 cells; conditions: for NanoBRET TE 293T.116 CRBN 2 hours IP nM / NanoBRET TE 293T.116 CRBN 6 hours IP nM / NanoBRET TE 293T.116 CRBN 24 hours IP nM / IC50: 293T.116 cells
[2] = target: mutant BRAF V600E (Homo sapiens, UniProt P15056, V600E); experiment: BRAF V600E HiBiT Degradation Assay in A375.10 cells; conditions: for HiBIT-Degradation A375.10 BRAF 2 hours IP nM: inflection point of the dose-response curve; for DC50: read-out: HIBIT-Degradation A375.10 BRAF 2 hours DC50 nM; for Emax: read-out: HiBIT-Degradation A375.10 BRAF 2 hours Emax
[3] = NanoBRET TE 293T.116 CRBN 2 hours IC50 nM, 2 hours incubation
[4] = NanoBRET TE 293T.116 CRBN 6 hours IC50 nM, 6 hours incubation
[5] = NanoBRET TE 293T.116 CRBN 24 hours IC50 nM, 24 hours incubation
[6] = read-out: NanoBRET TE 293T.116 CRBN 2 hours Emax
[7] = read-out: NanoBRET TE 293T.116 CRBN 6 hours Emax
[8] = read-out: NanoBRET TE 293T.116 CRBN 24 hours Emax

Row | SMILES | NanoBRET TE 293T.116 CRBN 2 hours IP nM ([1]; 2 hours incubation) | NanoBRET TE 293T.116 CRBN 6 hours IP nM ([1]; 6 hours incubation) | NanoBRET TE 293T.116 CRBN 24 hours IP nM ([1]; 24 hours incubation) | IC50 [1, 3] [nM] | IC50 [1, 4] [nM] | IC50 [1, 5] [nM] | Emax [1, 6] [%] | Emax [1, 7] [%] | Emax [1, 8] [%] | HiBIT-Degradation A375.10 BRAF 2 hours IP nM ([2]; 2 hours, A375.10 cells) | DC50 ([2]; 2 hours, A375.10 cells) [nM] | Emax [2] [%] | HiBIT-Degradation A375.10 BRAF 2 hours Emax ([2]; 2 hours, A375.10 cells, residual protein remaining)
1 | Cn1nc(N2CCC(=O)NC2=O)c2cccc(OS(=O)(=O)F)c21 [Compound A-30, 3-(2,4-dioxotetrahydropyrimidin-1(2H)-yl)-1-methyl-1H-indazol-7-yl sulfurofluoridate] | ** (<10 μM and >1 μM is **) | *** (<= 1 μM is ***) | ** (<10 μM and >1 μM is **) | 1000 to 10000 | < 1000 | 1000 to 10000 | < 50 | < 50 | < 50 | – | – | – | –
2 | O=C1CCC(Nc2ccc(C3CCNCC3)c(OS(=O)(=O)F)c2)C(=O)N1 (stereo not drawn) [Compound A-31, 5-((2,6-dioxopiperidin-3-yl)amino)-2-(piperidin-4-yl)phenyl sulfurofluoridate] | *** (<= 1 μM is ***) | *** (<= 1 μM is ***) | *** (<= 1 μM is ***) | < 1000 | < 1000 | < 1000 | < 50 | < 50 | < 50 | – | – | – | –
3 | O=C1NC(=O)C2(Nc3ccc(S(=O)(=O)F)cc3)CC1C2 [Compound A-33, 4-((2,4-dioxo-3-azabicyclo[3.1.1]heptan-1-yl)amino)benzenesulfonyl fluoride] | ** (<10 μM and >1 μM is **) | ** (<10 μM and >1 μM is **) | ** (<10 μM and >1 μM is **) | 1000 to 10000 | 1000 to 10000 | 1000 to 10000 | < 50 | < 50 | < 50 | – | – | – | –
4 | O=C1NC(=O)C2(c3ccc(S(=O)(=O)F)cc3)CC1C2 [Compound A-34, 4-(2,4-dioxo-3-azabicyclo[3.1.1]heptan-1-yl)benzenesulfonyl fluoride] | ** (<10 μM and >1 μM is **) | ** (<10 μM and >1 μM is **) | * (>=10 μM is *) | 1000 to 10000 | 1000 to 10000 | > 10000 | < 50 | < 50 | > 80 | – | – | – | –
5 | O=C1CCC(c2ccc(N3CCNCC3)c(OS(=O)(=O)F)c2)C(=O)N1 (stereo not drawn) [Compound A-36, 5-(2,6-dioxopiperidin-3-yl)-2-(piperazin-1-yl)phenyl sulfurofluoridate] | *** (<= 1 μM is ***) | *** (<= 1 μM is ***) | *** (<= 1 μM is ***) | < 1000 | < 1000 | < 1000 | < 50 | < 50 | < 50 | – | – | – | –
6 | O=C1CCC(Oc2ccc(C3CCNCC3)c(S(=O)(=O)F)c2)C(=O)N1 (stereo not drawn) [Compound A-38, 5-((2,6-dioxopiperidin-3-yl)oxy)-2-(piperidin-4-yl)benzenesulfonyl fluoride] | *** (<= 1 μM is ***) | *** (<= 1 μM is ***) | *** (<= 1 μM is ***) | < 1000 | < 1000 | < 1000 | < 50 | < 50 | < 50 | – | – | – | –
7 | O=C1CCN(c2ccc(N3CCNCC3)c(OS(=O)(=O)F)c2)C(=O)N1 [Compound A-39, 5-(2,4-dioxotetrahydropyrimidin-1(2H)-yl)-2-(piperazin-1-yl)phenyl sulfurofluoridate] | * (>=10 μM is *) | – | – | > 10000 | – | – | 50 to 80 | – | – | – | – | – | –
8 | O=C1CCC(CNc2cccc(OS(=O)(=O)F)c2)C(=O)N1 (stereo not drawn) [Compound A-40, 3-(((2,6-dioxopiperidin-3-yl)methyl)amino)phenyl sulfurofluoridate] | * (>=10 μM is *) | * (>=10 μM is *) | ** (<10 μM and >1 μM is **) | > 10000 | 1000 to 10000 | 1000 to 10000 | 50 to 80 | < 50 | < 50 | – | – | – | –
9 | O=C1CCN(c2ccc(N3CCNCC3)c(OS(=O)(=O)F)c2)C(=O)N1 [drawing 1142] | – | * (>=10 μM is *) | – | – | 1000 to 10000 | – | – | < 50 | – | – | – | – | –
10 | O=C1CCN(c2ccc(N3CCNCC3)c(OS(=O)(=O)F)c2)C(=O)N1 [drawing 1166] | – | – | ** (<10 μM and >1 μM is **) | – | – | 1000 to 10000 | – | – | < 50 | – | – | – | –
11 | CCN(C)S(=O)(=O)Nc1ccc(F)c(Oc2ccc3ncn([C@@H]4COC5(CCN(C(=O)CN6CCC(c7ccc(C8CCC(=O)NC8=O)cc7OS(=O)(=O)F)CC6)CC5)C4)c(=O)c3c2)c1C#N (stereo partly drawn) [drawing 1189] | – | – | – | – | – | – | – | – | – | *** (<= 1 μM is) | 1000 to 10000 | 60 to 95 | –
12 | CCN(C)S(=O)(=O)Nc1ccc(F)c(Oc2ccc3ncn([C@H]4COC5(CCN(C(=O)CN6CCC(c7ccc(C8CCC(=O)NC8=O)cc7OS(=O)(=O)F)CC6)CC5)C4)c(=O)c3c2)c1C#N (stereo partly drawn) [drawing 1190] | – | – | – | – | – | – | – | – | – | *** (<= 1 μM is) | < 1000 | < 60 | –
13 | CCN(C)S(=O)(=O)Nc1ccc(F)c(Oc2ccc3ncn([C@H]4COC5(CCN(C(=O)CN6CCN(c7ccc(C8CCC(=O)NC8=O)cc7OS(=O)(=O)F)CC6)CC5)C4)c(=O)c3c2)c1C#N (stereo partly drawn) [drawing 1191] | – | – | – | – | – | – | – | – | – | *** (<= 1 μM is) | 1000 to 10000 | < 60 | –
14 | CCN(C)S(=O)(=O)Nc1ccc(F)c(Oc2ccc3ncn([C@@H]4COC5(CCN(C(=O)CN6CCC(c7ccc(N8CCC(=O)NC8=O)cc7OS(=O)(=O)F)CC6)CC5)C4)c(=O)c3c2)c1C#N [drawing 1192] | – | – | – | – | – | – | – | – | – | * (>=10 μM is *) | > 10000 | > 95 | –
15 | CCN(C)S(=O)(=O)Nc1ccc(F)c(Oc2ccc3ncn([C@H]4COC5(CCN(C(=O)CN6CCC(c7ccc(N8CCC(=O)NC8=O)cc7OS(=O)(=O)F)CC6)CC5)C4)c(=O)c3c2)c1C#N [drawing 1193] | – | – | – | – | – | – | – | – | – | * (>=10 μM is *) | > 10000 | > 95 | –
16 | CCN(C)S(=O)(=O)Nc1ccc(F)c(Oc2ccc3ncn([C@H]4COC5(CCN(C(=O)CN6CCN(c7ccc(N8CCC(=O)NC8=O)cc7OS(=O)(=O)F)CC6)CC5)C4)c(=O)c3c2)c1C#N [drawing 1194] | – | – | – | – | – | – | – | – | – | * (>=10 μM is *) | > 10000 | > 95 | –
17 | CCN(C)S(=O)(=O)Nc1ccc(F)c(Oc2ccc3ncn([C@@H]4COC5(CCN(C(=O)CN6CCN(c7ccc(N8CCC(=O)NC8=O)cc7OS(=O)(=O)F)CC6)CC5)C4)c(=O)c3c2)c1C#N [drawing 1195] | – | – | – | – | – | – | – | – | – | * (>=10 μM is *) | > 10000 | 60 to 95 | –
18 | CCN(C)S(=O)(=O)Nc1ccc(F)c(Oc2ccc3ncn([C@H]4COC5(CCN(C(=O)CN6CCC(c7ccc(OC8CCC(=O)NC8=O)cc7OS(=O)(=O)F)CC6)CC5)C4)c(=O)c3c2)c1C#N (stereo partly drawn) [drawing 1196] | – | – | – | – | – | – | – | – | – | *** (<= 1 μM is) | 1000 to 10000 | < 60 | –
19 | CCN(C)S(=O)(=O)Nc1ccc(F)c(Oc2ccc3ncn([C@H]4COC5(CCN(C(=O)CN6CCC(c7ccc(NC8CCC(=O)NC8=O)cc7S(=O)(=O)F)CC6)CC5)C4)c(=O)c3c2)c1C#N (stereo partly drawn) [drawing 1197] | – | – | – | – | – | – | – | – | – | *** (<= 1 μM is) | > 10000 | 60 to 95 | –
20 | CCN(C)S(=O)(=O)Nc1ccc(F)c(Oc2ccc3ncn([C@@H]4COC5(CCN(C(=O)CN6CCC(c7ccc(OC8CCC(=O)NC8=O)cc7S(=O)(=O)F)CC6)CC5)C4)c(=O)c3c2)c1C#N (stereo partly drawn) [drawing 1198] | – | – | – | – | – | – | – | – | – | *** (<= 1 μM is) | 1000 to 10000 | 60 to 95 | –
21 | CCN(C)S(=O)(=O)Nc1ccc(F)c(Oc2ccc3ncn([C@H]4COC5(CCN(C(=O)CN6CCN(c7ccc(C8CCC(=O)NC8=O)cc7OS(=O)(=O)F)CC6)CC5)C4)c(=O)c3c2)c1C#N (stereo partly drawn) [drawing 1199] | – | – | – | – | – | – | – | – | – | *** (<= 1 μM is) | > 10000 | – | *** (<= 60% is)
22 | CCN(C)S(=O)(=O)Nc1ccc(F)c(Oc2ccc3ncn([C@H]4COC5(CCN(C(=O)CN6CCC(c7ccc(OC8CCC(=O)NC8=O)cc7S(=O)(=O)F)CC6)CC5)C4)c(=O)c3c2)c1C#N (stereo partly drawn) [drawing 1200] | – | – | – | – | – | – | – | – | – | *** (<= 1 μM is) | 1000 to 10000 | 60 to 95 | –
23 | CCN(C)S(=O)(=O)Nc1ccc(F)c(Oc2ccc3ncn([C@@H]4COC5(CCN(C(=O)CN6CCC(c7ccc(OC8CCC(=O)NC8=O)cc7OS(=O)(=O)F)CC6)CC5)C4)c(=O)c3c2)c1C#N (stereo partly drawn) [drawing 1201] | – | – | – | – | – | – | – | – | – | *** (<= 1 μM is) | 1000 to 10000 | 60 to 95 | –
24 | CCN(C)S(=O)(=O)Nc1ccc(F)c(Oc2ccc3ncn([C@H]4COC5(CCN(C(=O)CN6CCC(c7ccc(NC8CCC(=O)NC8=O)cc7OS(C)(=O)=O)CC6)CC5)C4)c(=O)c3c2)c1C#N (stereo partly drawn) [drawing 1202] | – | – | – | – | – | – | – | – | – | *** (<= 1 μM is) | 1000 to 10000 | < 60 | –
25 | CCN(C)S(=O)(=O)Nc1ccc(F)c(Oc2ccc3ncn([C@@H]4COC5(CCN(C(=O)CN6CCC(c7ccc(N8CCC(=O)NC8=O)cc7OS(C)(=O)=O)CC6)CC5)C4)c(=O)c3c2)c1C#N [drawing 1203] | – | – | – | – | – | – | – | – | – | *** (<= 1 μM is) | > 10000 | < 60 | –
